The subject of test [1] is immortalized adipocytes. As to the kind of experiment: In vitro lipolysis (FFA and glycerol release) in immortalized adipocytes. The format is cell-based, mice. Here is the method: Primary preadipocytes from Rala^f/f mice were immortalized by retroviral transduction of pBabe-zeo-LT-ST (SV40) and selection by Zeocin^75. Single-cell clones were selected and tested for differentiation capacity. […] To generate Rala KO cells, immortalized Rala^f/f (WT) preadipocytes were transduced with lentiviral Cre with 8 μg/mL Polybrene for 12 hours, then cultured in DMEM/F12-FBS medium. Cre recombinase efficiency was tested in preadipocytes and adipocytes. Once 95-100% confluency was reached (day 0), differentiation was induced as described above. On the day of the experiment, cells were starved in DMEM/F12 medium for 3 hours before treatments.
Fully differentiated primary adipocytes in a 24-well plate were serum-starved in lipolysis medium (2% BSA-phenol-red-free DMEM) for 3 hours. For insulin treatment, 100 nM insulin was added to cells for 30 minutes starting at 2.5 hours of starvation. After starvation, the medium was replaced with 0.5 mL fresh lipolysis medium with vehicle, 1 μM CL-316,243 (CL), 100 nM insulin or in combination. The medium was collected 1 hour after incubation at 37° C. Released FFAs and free glycerol levels were measured using 100 μL medium with a NEFA kit (WAKO) and Free Glycerol Reagent (Sigma) according to the manufacturer's protocol.

Test [2] can be described thus: In vivo insulin-suppressed lipolysis. The conditions noted are these: single injection of insulin, fasted CD-fed control and Rala AKO mice. The procedure: CD-fed mice were used for in vivo lipolysis. For CL-induced lipolysis, ad libitum-fed mice were i.p. injected with PBS or CL (1 mg/kg) for 60 minutes. Circulating FFAs and free glycerol levels were measured using 2 μL plasma with a NEFA kit (WAKO) and Free Glycerol Reagent (Sigma), respectively. For insulin-suppressed lipolysis, overnight-fasted mice were i.p. injected with insulin (0.5 U/kg) for 60 minutes. Circulating FFAs and free glycerol levels were measured at the indicated conditions.

Test [3] concerns primary and immortalized adipocytes. As to the kind of experiment: TMRM live-cell imaging of mitochondrial membrane potential in adipocytes. Type of test: cell-based, mice. The following applies: adipocytes treated with 1 μM CL-316,243 for indicated times. An excerpt: FIGS. 10A-10J. […] FIG. 10A: Calculation of individual OCR in differentiated primary adipocytes (n=8 biological samples). P=0.0008, P=0.0175, P=0.0042. FIG. 10B: Representative immunoblot of RalA and β-Tubulin in immortalized preadipocytes and differentiated adipocytes. (n=3 biological samples). FIG. 10C: Quantification of mean TMRM fluorescence intensity in primary adipocytes and immortalized adipocytes (n=3 independent cells). P<0.0001, P<0.0001. FIG. 10D: Time course TMRM intensity quantification in primary and immortalized adipocytes (n=4 biological samples). Adipocytes were treated with 1 μM CL-316,243 (CL) for indicated times. P=0.0015, P=0.0044 (left panel). P<0.0001, P=0.0154, P=0.0095 (right panel). FIGS. 10E and 10F: Quantification of NEFA (FIG. 10E) and free glycerol (FIG. 10F) released into medium from immortalized adipocytes (n=3 biological samples). Cells were treated with 1 μM CL, 100 nM insulin, or in combination prior to medium collection. P=0.0301, P=0.0051 (FIG. 10F). FIGS. 10G and 10H: Plasma levels of NEFA (FIG. 10G) and free glycerol (FIG. 10H) in CD-fed Rala^f/f and Rala^AKO mice (n=6). P=0.0027, P=0.0173 (FIG. 10H). Mice were i.p. injected with CL or vehicle prior to blood sampling. FIGS. 10I and 10J: Plasma levels of NEFA (FIG. 10I) and free glycerol (FIG. 10J) in CD-fed Rala^f/f (n=4) and Rala^AKO (n=5) mice. […]

A short description of test [4]: RalA inhibitor treatment of mice: body weight, tissue weight, blood glucose. Type of test: in vivo. The text has this: To test the effects of RalA inhibition in reducing body weight, tissue weight and blood glucose level in mice, mice were weighed before injecting with either RalA inhibitor, BQU57, or DMSO (vehicle). Post injection, mice were weighed every 2 days.

Test [5] has as its system primary differentiated adipocytes. As to the kind of experiment: Seahorse oxygen consumption rate in differentiated primary adipocytes. The format is cell-based, mice. The following applies: addition of etomoxir. Here is the method:
The cellular oxygen consumption rate (OCR) was measured using an eXF96 Extracellular Flux Analyzer and analyzed by Agilent Seahorse Wave Software (Seahorse Bioscience). Before performing the assay, 2,500 primary preadipocytes were seeded and differentiated in XF96 microplates. Once fully differentiated, the adipocyte culture medium was changed to assay medium containing 25 mM glucose, 1 mM pyruvate and 2 mM L-glutamine, and 0.5 mM carnitine without phenol red or sodium bicarbonate for 3 hours. Before taking measurements, cells were incubated in a CO2-free incubator for 15 minutes. Basal rates of respiration were measured in assay medium and followed with sequential injections of oligomycin (2 μM), FCCP (0.5 μM) and rotenone with antimycin A (each 0.5 μM). Oxygen consumption values were normalized to total protein content.

Entries after “also recorded” stand apart in the source; their conditions may differ.

For “insulin: insulin used at 100 nM in cells or injected i.p. (human insulin, Sigma)”, in test [1] (100 nM insulin with 1 μM CL, both WT and KO cells), the “suppression of CL-induced FFA release” value is reported as “approximately 50%”. Besides, the “plasma FFA levels” value in test [2] is recorded as “reduced FFA levels”.
Regarding `C[C@H](Cc1ccc2c(c1)OC(C(=O)[O-])(C(=O)[O-])O2)NC[C@H](O)c1cccc(Cl)c1.[Na+].[Na+]` [CL-316,243], the “FFA and glycerol release” value in test [1] (1 μM CL, KO and WT immortalized adipocytes) is “robustly stimulated FFA and glycerol release”. For the same compound, the “TMRM signal (mitochondrial membrane potential)” value in test [3] was “TMRM signal declined quickly”.
Take `Cc1nn(C)c2c1C(c1ccc(C(F)(F)F)cc1)C(C#N)=C(N)O2` (centres unmarked) [BQU57]: in test [4] (mice injected with BQU57 vs DMSO vehicle, weighed every 2 days, 23 days of treatment), the body weight result is recorded as “significant weight loss; also recorded: reduced body weight”. Also, in test [4] (mice, BQU57 vs vehicle group), the blood glucose level entry is given as “significant reduction in the blood glucose level”. The “subcutaneous WAT (sWAT) weight” value in test [4] (mice, post treatment with BQU57) is reported as “marked reduction of subcutaneous WAT (sWAT) weight”.
Consider `CCOC(=O)[C@@]1(CCCCCCOc2ccc(Cl)cc2)CO1` [etomoxir], for which the “difference in maximal respiration (OCR) between KO and control adipocytes” value in test [5] is reported as “blunted”.
